Assay results from patent US7973056B2, “Triazole derivative or salt thereof” (Fujifilm Finechemicals Co., Ltd, priority 2008, dated 2011).

What was measured:
[1] = system: Candida albicans TIMM 1623; assay: Antifungal activity test (in vivo), mouse systemic infection model; parameters: survival rate: unit not given here; conditions: for T/C (%): survival time of administration group / control group x100
Procedure: With respect to compounds I-1, I-3 and I-6 obtained in Examples 1, 3 and 6 respectively, therapeutic effects at the time of subcutaneous administration of compounds I-1, I-3 and I-6 on a mouse systemic infection model by Candida albicans TIMM 1623 were tested.
The test was carried out using 5 animals for each of the drug administration groups and Negative control group (sterile physiological saline administration group).
Each of compounds I-1, I-3 and I-6 was dissolved in and diluted with dimethyl sulfoxide (DMSO; Wako Pure Chemical Industries, Ltd.) and then prepared into a predetermined concentration by diluting with sterile physiological saline.
As the control experiment, Fluconazole (FLCZ, Flanos intravenous drip solution 100 mg; TOYAMA CHEMICAL CO, LTD.) diluted to a predetermined concentration with sterile physiological saline was used.
On the next day of the receipt of animals, body weights of mice were measured and CP (crude protein) was intraperitoneally administered at a dose of 200 mg/kg based on the individual body weight, and then they were reared for 3 days.
Cells of C. albicans TIMM 1623 cultured overnight at 35° C. on SDA (Sabouraud dextrose agar; Eiken Chemical Co., Ltd.) plate medium were suspended in sterile physiological saline and used as the Stock solution, and a portion thereof was diluted with 10% formalin (Wako Pure Chemical Industries, Ltd.). The number of cells in the diluted liquid was counted under a biological microscope using a hemocytometer, and then an inoculum was prepared by diluting the stock solution with sterile physiological saline (about 1.5×10^5 cells/ml). By inoculating 0.2 ml of this cell suspension through caudal vein, infection was induced. In this connection, the number of viable cells in the inoculum was verified by spreading the cell suspension optionally diluted with sterile physiological saline on an SDA plate medium and then culturing at 35° C. Each of the substances to be tested, control substance or sterile physiological saline was subcutaneously administered after 2 hours of the infection and for 3 days starting on the next day of infection once a day, a total of 4 times. After measuring individual body weight on the next day of infection, CP was again administered intraperitoneally at a dose of 100 mg/kg. The number of survived mice was observed and recorded for 14 days starting on the next day of infection.
The results were shown in Table 3 below and FIGS. 1A to 1D. In the table, the administration dose of the compounds of the present invention and the comparative compound represents a mg amount per 1 kg of a mouse weight (mg/kg).
Significant deference was tested, by 5% for both sides of the levels of significance, in accordance with the Kaplan-Meier method Logrank test (comparison of multiple groups), on the survival time distribution of each of the substances to be tested and control substance administration groups and sterile physiological saline administration group. SAS release 8.2 (SAS Institute Japan) was used in the Kaplan-Meier method Logrank test. (T/C(%)=[survival time of administration group (integrated value)/survival time of control group (integrated value)]×100)

[2] = system: Trichophyton mentagrophytes ATCC 9533; assay: Antifungal activity test (in vitro), MIC; type: cell-based; conditions: ATCC9533
Procedure: (§1) Minimum inhibitory concentration (MIC) of each of the compounds obtained in Examples 1 to 12 was measured for respective fungi at MOS Pharm Service, by the methods described in Antimicrobial Agents and Chemotherapy, vol. 3, pp. 40-48 (1973), Antimicrobial Agents and Chemotherapy, vol. 33, pp. 215-222 (1989) and Antimicrobial Agents and Chemotherapy, vol. 38, pp. 2362-2368 (1994). The measuring conditions are shown in the following. In this case, Voriconazol was used as a comparative compound. Trichophyton mentagrophytes ATCC 9533; Cultured at 28° C. for 3 days using fluid Sabouraud medium, and this was used as a cell suspension. Each of the compounds of the invention was adjusted to a concentration of 1% by weight using dimethyl sulfoxide (DMSO) and a medium similar to the respective medium used in the above-mentioned fungal culture, having a final concentration of from 0.001 to 100 μg/ml, was prepared. Each of the inoculation cell suspensions prepared by the above-mentioned methods was inoculated onto this agar plate. […] In this connection, Voriconazol was used as the comparative compound C-1.

[3] = system: Candida albicans ATCC 10231; assay: Antifungal activity test (in vitro), MIC; type: cell-based; conditions: ATCC10231
Procedure: as §1, with “Candida albicans” for “Trichophyton mentagrophytes”, “10231 and ATCC 44858;” for “9533;”, “37°” for “28°”, “20 hours” for “3 days”

C[C@@H](N1CCC(c2ccccn2)CC1)[C@](O)(Cn1cncn1)c1ccc(F)cc1F [I-1, (2R,3R)-2-(2,4-difluorophenyl)-3-(4-pyridin-2-ylpiperidin-1-yl)-1-(1,2,4-triazol-1-yl)butan-2-ol]
103%: T/C (%) ([1]; 0.1 mg/kg s.c.)
0.3 µg/mL: MIC [2] | MIC [3]
100: survival rate ([1]; 0.1 mg/kg s.c., day 0) | survival rate ([1]; 0.1 mg/kg s.c., day 1) | survival rate ([1]; 0.1 mg/kg s.c., day 2) | survival rate ([1]; 1 mg/kg s.c., day 0) | survival rate ([1]; 1 mg/kg s.c., day 1) | survival rate ([1]; 1 mg/kg s.c., day 2) | survival rate ([1]; 1 mg/kg s.c., day 3) | survival rate ([1]; 1 mg/kg s.c., day 4) | survival rate ([1]; 10 mg/kg s.c., day 0) | survival rate ([1]; 10 mg/kg s.c., day 1) | survival rate ([1]; 10 mg/kg s.c., day 2)
132%: T/C (%) ([1]; 10 mg/kg s.c.)
20: survival rate ([1]; 0.1 mg/kg s.c., day 7) | survival rate ([1]; 0.1 mg/kg s.c., day 8) | survival rate ([1]; 0.1 mg/kg s.c., day 9) | survival rate ([1]; 0.1 mg/kg s.c., day 10) | survival rate ([1]; 0.1 mg/kg s.c., day 11) | survival rate ([1]; 1 mg/kg s.c., day 13) | survival rate ([1]; 1 mg/kg s.c., day 14) | survival rate ([1]; 10 mg/kg s.c., day 13) | survival rate ([1]; 10 mg/kg s.c., day 14)
0: survival rate ([1]; 0.1 mg/kg s.c., day 12)
80: survival rate ([1]; 1 mg/kg s.c., day 5) | survival rate ([1]; 1 mg/kg s.c., day 6)
60: survival rate ([1]; 0.1 mg/kg s.c., day 3) | survival rate ([1]; 0.1 mg/kg s.c., day 4) | survival rate ([1]; 0.1 mg/kg s.c., day 5) | survival rate ([1]; 0.1 mg/kg s.c., day 6) | survival rate ([1]; 1 mg/kg s.c., day 7) | survival rate ([1]; 1 mg/kg s.c., day 8) | survival rate ([1]; 1 mg/kg s.c., day 9) | survival rate ([1]; 10 mg/kg s.c., day 3) | survival rate ([1]; 10 mg/kg s.c., day 4) | survival rate ([1]; 10 mg/kg s.c., day 5) | survival rate ([1]; 10 mg/kg s.c., day 6)
161%: T/C (%) ([1]; 1 mg/kg s.c.)
40: survival rate ([1]; 1 mg/kg s.c., day 10) | survival rate ([1]; 1 mg/kg s.c., day 11) | survival rate ([1]; 1 mg/kg s.c., day 12) | survival rate ([1]; 10 mg/kg s.c., day 7) | survival rate ([1]; 10 mg/kg s.c., day 8) | survival rate ([1]; 10 mg/kg s.c., day 9) | survival rate ([1]; 10 mg/kg s.c., day 10) | survival rate ([1]; 10 mg/kg s.c., day 11) | survival rate ([1]; 10 mg/kg s.c., day 12)

C[C@@H](N1CC=C(c2ccccn2)CC1)[C@](O)(Cn1cncn1)c1ccc(F)cc1F [I-3, (2R,3R)-2-(2,4-difluorophenyl)-3-(3′,6′-dihydro-2,4′-bipyridin-1′(2′H)-yl)-1-(1,2,4-triazol-1-yl)butan-2-ol]
60: survival rate ([1]; 0.1 mg/kg s.c., day 3) | survival rate ([1]; 0.1 mg/kg s.c., day 4) | survival rate ([1]; 0.1 mg/kg s.c., day 5) | survival rate ([1]; 0.1 mg/kg s.c., day 6) | survival rate ([1]; 1 mg/kg s.c., day 5) | survival rate ([1]; 10 mg/kg s.c., day 3) | survival rate ([1]; 10 mg/kg s.c., day 4) | survival rate ([1]; 10 mg/kg s.c., day 5) | survival rate ([1]; 10 mg/kg s.c., day 6)
142%: T/C (%) ([1]; 1 mg/kg s.c.)
0.1 µg/mL: MIC [2]
40: survival rate ([1]; 0.1 mg/kg s.c., day 7) | survival rate ([1]; 0.1 mg/kg s.c., day 8) | survival rate ([1]; 0.1 mg/kg s.c., day 9) | survival rate ([1]; 0.1 mg/kg s.c., day 10) | survival rate ([1]; 0.1 mg/kg s.c., day 11) | survival rate ([1]; 0.1 mg/kg s.c., day 12) | survival rate ([1]; 0.1 mg/kg s.c., day 13) | survival rate ([1]; 0.1 mg/kg s.c., day 14) | survival rate ([1]; 1 mg/kg s.c., day 6) | survival rate ([1]; 1 mg/kg s.c., day 7) | survival rate ([1]; 1 mg/kg s.c., day 8) | survival rate ([1]; 1 mg/kg s.c., day 9) | survival rate ([1]; 1 mg/kg s.c., day 10) | survival rate ([1]; 1 mg/kg s.c., day 11) | survival rate ([1]; 1 mg/kg s.c., day 12) | survival rate ([1]; 1 mg/kg s.c., day 13) | survival rate ([1]; 1 mg/kg s.c., day 14) | survival rate ([1]; 10 mg/kg s.c., day 7)
100: survival rate ([1]; 0.1 mg/kg s.c., day 0) | survival rate ([1]; 0.1 mg/kg s.c., day 1) | survival rate ([1]; 0.1 mg/kg s.c., day 2) | survival rate ([1]; 1 mg/kg s.c., day 0) | survival rate ([1]; 1 mg/kg s.c., day 1) | survival rate ([1]; 1 mg/kg s.c., day 2) | survival rate ([1]; 10 mg/kg s.c., day 0) | survival rate ([1]; 10 mg/kg s.c., day 1) | survival rate ([1]; 10 mg/kg s.c., day 2)
116%: T/C (%) ([1]; 10 mg/kg s.c.)
80: survival rate ([1]; 1 mg/kg s.c., day 3) | survival rate ([1]; 1 mg/kg s.c., day 4)
139%: T/C (%) ([1]; 0.1 mg/kg s.c.)
20: survival rate ([1]; 10 mg/kg s.c., day 8) | survival rate ([1]; 10 mg/kg s.c., day 9) | survival rate ([1]; 10 mg/kg s.c., day 10) | survival rate ([1]; 10 mg/kg s.c., day 11) | survival rate ([1]; 10 mg/kg s.c., day 12) | survival rate ([1]; 10 mg/kg s.c., day 13) | survival rate ([1]; 10 mg/kg s.c., day 14)
0.3 µg/mL: MIC [3]

C[C@@H](N1CC=C(c2ccc(Cl)cn2)CC1)[C@](O)(Cn1cncn1)c1ccc(F)cc1F [I-6, (2R,3R)-3-(5-chloro-3′,6′-dihydro-2,4′-bipyridin-1′(2′H)-yl)-2-(2,4-difluorophenyl)-1-(1,2,4-triazol-1-yl)butan-2-ol]
242%: T/C (%) ([1]; 1 mg/kg s.c.) | T/C (%) ([1]; 10 mg/kg s.c.)
0.01 µg/mL: MIC [3]
0.1 µg/mL: MIC [2]
80: survival rate ([1]; 0.1 mg/kg s.c., day 7)
194%: T/C (%) ([1]; 0.1 mg/kg s.c.)
60: survival rate ([1]; 0.1 mg/kg s.c., day 8) | survival rate ([1]; 0.1 mg/kg s.c., day 9) | survival rate ([1]; 0.1 mg/kg s.c., day 10) | survival rate ([1]; 0.1 mg/kg s.c., day 11) | survival rate ([1]; 0.1 mg/kg s.c., day 12) | survival rate ([1]; 0.1 mg/kg s.c., day 13) | survival rate ([1]; 0.1 mg/kg s.c., day 14)
100: survival rate ([1]; 0.1 mg/kg s.c., day 0) | survival rate ([1]; 0.1 mg/kg s.c., day 1) | survival rate ([1]; 0.1 mg/kg s.c., day 2) | survival rate ([1]; 0.1 mg/kg s.c., day 3) | survival rate ([1]; 0.1 mg/kg s.c., day 4) | survival rate ([1]; 0.1 mg/kg s.c., day 5) | survival rate ([1]; 0.1 mg/kg s.c., day 6) | survival rate ([1]; 1 mg/kg s.c., day 0) | survival rate ([1]; 1 mg/kg s.c., day 1) | survival rate ([1]; 1 mg/kg s.c., day 2) | survival rate ([1]; 1 mg/kg s.c., day 3) | survival rate ([1]; 1 mg/kg s.c., day 4) | survival rate ([1]; 1 mg/kg s.c., day 5) | survival rate ([1]; 1 mg/kg s.c., day 6) | survival rate ([1]; 1 mg/kg s.c., day 7) | survival rate ([1]; 1 mg/kg s.c., day 8) | survival rate ([1]; 1 mg/kg s.c., day 9) | survival rate ([1]; 1 mg/kg s.c., day 10) | survival rate ([1]; 1 mg/kg s.c., day 11) | survival rate ([1]; 1 mg/kg s.c., day 12) | survival rate ([1]; 1 mg/kg s.c., day 13) | survival rate ([1]; 1 mg/kg s.c., day 14) | survival rate ([1]; 10 mg/kg s.c., day 0) | survival rate ([1]; 10 mg/kg s.c., day 1) | survival rate ([1]; 10 mg/kg s.c., day 2) | survival rate ([1]; 10 mg/kg s.c., day 3) | survival rate ([1]; 10 mg/kg s.c., day 4) | survival rate ([1]; 10 mg/kg s.c., day 5) | survival rate ([1]; 10 mg/kg s.c., day 6) | survival rate ([1]; 10 mg/kg s.c., day 7) | survival rate ([1]; 10 mg/kg s.c., day 8) | survival rate ([1]; 10 mg/kg s.c., day 9) | survival rate ([1]; 10 mg/kg s.c., day 10) | survival rate ([1]; 10 mg/kg s.c., day 11) | survival rate ([1]; 10 mg/kg s.c., day 12) | survival rate ([1]; 10 mg/kg s.c., day 13) | survival rate ([1]; 10 mg/kg s.c., day 14)
